From article PMC3606118, “Salvianolic Acid A, a Novel Matrix Metalloproteinase-9 Inhibitor, Prevents Cardiac Remodeling in Spontaneously Hypertensive Rats” (PLoS ONE, 2013)

What was measured:
[1] = Toxicological evaluation of SalA on SHR; assay type: in vivo, SHR rats
Method: 2-month old male SHR rats were given rodent chow containing 8% NaCl 4 weeks before SaA treatment to the end of the experiment. Rats were divided into four groups (20 per group) and were injected intraperitoneally with saline or SalA everyday at the indicated dose for 4 weeks. The four groups were named as SalA (0 mg/kg), SalA (2.5 mg/kg), SalA (5 mg/kg), SalA (10 mg/kg) basing on the dose of SalA, respectively.
After ketamine-xylazine anesthesia (ketamine: xylazine, 60∶5 mg/kg, intramuscularly), heart, liver and kidney samples from experimental animals were fixed with 4% neutral-buffered paraformaldehyde for 24 h. Specimens were paraffin-embedded, sliced at 5 µm, and stained with haematoxylin and eosin. After staining, the sections were rinsed with distilled water, dehydrated, and mounted with Permount. Photomicrographs were taken using an Olympus BX51 microscope plus Olympus DP71 CCD camera (Olympus Corporation). Software Image-Pro Plus version 6.0 was used and approximately 150 cells per heart were measured to determine the average myocyte circumference. Paraffin-embedded slices were also stained with 0.1% picric sirius red (Sigma-Aldrich Inc, St Louis, USA) for fibrillar collagen. Collagen volume fraction (CVF) was expressed as a percentage of the total area of the field occupied by collagen staining.

[2] = molecular target: T1, MMP-9 CD (Homo sapiens, UniProt P14780, DEL217-390); assay: MMP-9 inhibition assay (thiopeptolide, enzyme kinetic analysis); assay type: biochemical
T1 construct: corresponding to residues 107–216 and 391–444; made in house
T1 sequence (P14780 with tags, fused parts or gaps DEL217-390 limits assumed): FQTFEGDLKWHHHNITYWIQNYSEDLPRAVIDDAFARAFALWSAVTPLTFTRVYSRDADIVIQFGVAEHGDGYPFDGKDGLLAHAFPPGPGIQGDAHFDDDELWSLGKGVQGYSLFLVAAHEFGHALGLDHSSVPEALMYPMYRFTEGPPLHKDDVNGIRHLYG
Method: Phenolic acids at the indicated concentrations were incubated with the reaction mixtures contained MMP-9 CD (15 nmol/L) and 5,5′-dithiobis-(2-nitrobenzoic acid) (1 mmol/L) at 4°C for 30 min. The reaction was initiated by the addition of thiopeptolide (Ac-Pro-Leu-Gly-S-Leu-Leu-Gly-OEt). Hydrolysis of thiopeptolide was monitored at 412 nm using Benchmark Plus™ microplate spectrophotometer (Bio-Rad) at room temperature. Kinetic analysis of phenolic acids against MMP-9 CD was calculated using double reciprocal plots of 1/V versus 1/[thiopeptolide]. The slope of every double reciprocal plot is the Km ^app/Vmax of enzyme at different compound concentration. Secondary plot was drawn through Km ^app/Vmax versus compound concentration. Km ^app is apparent value of Km; Ki is inhibition constant; Ki was calculated using the equation Ki = [Km/Vmax][compound]/(Km ^app/Vmax –Km/Vmax).

[3] = molecular target: T2, MMP-2 (Rattus norvegicus, UniProt P33436); assay: In-gel gelatin zymography of SHR heart, MMP-2; assay type: in vivo, SHR rats; conditions: SalA i.p. everyday for 4 weeks
T2 construct: twenty µg protein from tissue; from tissue; host or cells: heart of spontaneously hypertensive rats (SHR)
T2 sequence (P33436 110-662): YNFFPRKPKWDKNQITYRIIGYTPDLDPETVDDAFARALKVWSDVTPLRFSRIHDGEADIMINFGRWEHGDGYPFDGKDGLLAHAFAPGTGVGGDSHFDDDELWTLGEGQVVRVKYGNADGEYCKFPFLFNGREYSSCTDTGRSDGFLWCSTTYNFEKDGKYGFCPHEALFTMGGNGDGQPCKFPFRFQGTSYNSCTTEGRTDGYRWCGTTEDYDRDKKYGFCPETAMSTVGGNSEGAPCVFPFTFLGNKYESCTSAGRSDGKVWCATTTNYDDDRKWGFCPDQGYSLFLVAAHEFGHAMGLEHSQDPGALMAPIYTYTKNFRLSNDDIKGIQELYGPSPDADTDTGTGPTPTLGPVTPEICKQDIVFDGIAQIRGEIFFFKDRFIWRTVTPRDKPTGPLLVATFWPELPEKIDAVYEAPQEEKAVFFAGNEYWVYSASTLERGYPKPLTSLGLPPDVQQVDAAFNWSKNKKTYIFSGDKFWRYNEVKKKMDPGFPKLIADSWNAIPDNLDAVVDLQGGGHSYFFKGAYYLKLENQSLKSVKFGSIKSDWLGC

[4] = tested on: neonatal cardiac fibroblast; assay: CCK-8 proliferation of neonatal cardiac fibroblast; assay type: cell-based, Wistar rats; conditions: 10 µmol/L SalA with MMP-9 CD, 24 h
Method: Primary cardiac fibroblast was obtained from neonatal rats and National Institutes of Health (NIH) Guide for the Care and Use of Laboratory Animals was followed throughout. Wistar rats (2–4 day old) were sacrificed by cervical dislocation; ventricles were minced and digested with 0.1% trypsin at 37°C for 8 min. The liberated cells were collected by centrifugations; non-digested chunk materials were further digested in 0.1% trypsin for an additional 8 min. This digestion procedure was repeated 3–4 times. All the liberated cells were pelleted by centrifugation at 1,000 rpm for 10 min, re-suspended in DMEM containing 10% fetal bovine serum (FBS), and cultured in a 100-mm noncoated culture flask at 37°C with 5% CO2 for 2 h. Adherent cardiac fibroblasts were collected and maintained in DMEM supplemented with 10% FBS, 100 U/mL penicillin, 100 µg/mL streptomycin [12]. Cardiac fibroblasts were treated by vehicle (Con); 200 nmol/L MMP-9 CD (MMP-9); 200 nmol/L MMP-9 CD plus 1 µmol/L SalA [MMP-9/SalA(1)]; or 200 nmol/L MMP-9 CD plus 10 µmol/L SalA [MMP-9/SalA(10)] for the following research. All the detections were conducted after 24 h treatment.
Cell proliferation assay was performed using Cell Counting Kit (CCK-8 kit, Dojindo Laboratory, Japan) as described previously. Absorbance was detected at 450 nm (reference 650 nm) using a microplate reader (Tecan GENios, Austria).

## O=C(/C=C/c1ccc(O)c(O)c1/C=C/c1ccc(O)c(O)c1)O[C@H](Cc1ccc(O)c(O)c1)C(=O)O [SalA, salvianolic acid A]
[1]; intraperitoneally administered to rats for 1 month
  signs of toxicity or mortality: failed to induce any signs of toxicity or mortality
[1]; rat, in vivo, 10 mg/kg
  body weight, food consumption: no changes
[2]; double reciprocal plots
  inhibition mode on MMP-9: competitively
[2]; spectrophotometric enzyme kinetic assay, thiopeptolide substrate
  Ki: 5.74 ± 1.15 µM
[3]
  MMP-2 activity in heart of SHRs: no regulation
[4]
  proliferation of neonatal cardiac fibroblast: considerable promotion
